In patent US10721937B1, “Preservative systems and compositions and methods incorporating same” (CODEX BEAUTY CORPORATION, priority 2019, dated 2020):

System: skin of human volunteers
Experiment: Human Repeat Insult Patch Test (HRIPT), skin irritation and sensitization
Assay type: in vivo
Conditions: positive control, study of Example 28, 51 subjects completing
Source text: Prior to utilizing in-vivo efficacy testing, however, it must first be determined that application of the product onto the skin of human volunteers will not cause them to experience an allergic reaction or some form of painful irritation. This is done by performing what is known as a Human Repeat Insult Patch Test (HRIPT). This is an internationally recognized test used to determine the potential for irritation, sensitization, and allergic reaction potential of a product. In view of the growing number of exotic ingredients used in skin care formulations, coupled with the increasingly complex and sophisticated chemical composition of the formulas, the risk of individuals experiencing irritation and allergic reactions because of their use has increased substantially. […] Any allergic reactions experienced by the test subject will be observed, recorded, and evaluated by a dermatologist to confirm, or not, the safety of the product. […]
Each HRIPT included about 50 subjects. In addition to demographic data collected for each subject, a Fitzpatrick Skin Type was also determined. […]
This procedure was repeated until a series of 9 consecutive, 24-hour exposures had been made 3 times a week for three 3 consecutive weeks. Prior to each reapplication, the test sites evaluated by trained laboratory personnel. […]

Which results are given for `CCCCCCCCCCCCOS(=O)(=O)[O-].[Na+]` [2.0% Sodium Lauryl Sulfate Solution, Sodium Lauryl Sulfate]?
number of subjects with a Grade 1 reaction in HRIPT: 4 subjects; number of subjects with a Grade 3 reaction in HRIPT: one
